Reference: patent US11053204B2, “Pyrimidinyloxy benzene derivatives as herbicides” (FMC Corporation, priority 2015, dated 2021)

Assays:
Type in all cases: in vivo
kochia (Kochia scoparia) [1] = experiment: Test A preemergence, visual injury rating; conditions: 0 to 100 scale (0 no effect, 100 complete control)
Procedure, shortened: (§1)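 Scoring: eye-based comparison with untreated controls, 0 for no effect through 100 for complete control, at about day 10. Treatments: directed soil spray preemergence; foliar spray postemergence on 2–10 cm plants at the one- to two-leaf stage. Medium: loam soil with sand.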

[2] = tested on: pigweed (Amaranthus retroflexus); experiment: Test A preemergence, visual injury rating; conditions: 0 to 100 scale (0 no effect, 100 complete control)
Procedure, shortened: as §1

[3] = tested on: Italian ryegrass (Lolium multiflorum); experiment: Test A postemergence, visual injury rating; conditions: 0 is no effect, 100 is complete control
Procedure, shortened: as §1

[4] = tested on: barnyardgrass (Echinochloa crus-galli); experiment: Test A postemergence, visual injury rating; conditions: 0 is no effect, 100 is complete control
Procedure, shortened: as §1

[5] = tested on: blackgrass (Alopecurus myosuroides); experiment: Test A postemergence, visual injury rating; conditions: 0 is no effect, 100 is complete control
Procedure, shortened: as §1

corn (Zea mays) = experiment: Test A postemergence, visual injury rating; conditions: 0 is no effect, 100 is complete control
Procedure, shortened: as §1

[6] = tested on: galium (catchweed bedstraw, Galium aparine); experiment: Test A postemergence, visual injury rating; conditions: 0 is no effect, 100 is complete control
Procedure, shortened: as §1

[7] = tested on: giant foxtail (Setaria faberii); experiment: Test A postemergence, visual injury rating; conditions: 0 is no effect, 100 is complete control
Procedure, shortened: as §1

kochia (Kochia scoparia) [8] = experiment: Test A postemergence, visual injury rating; conditions: 0 is no effect, 100 is complete control
Procedure, shortened: as §1

[9] = tested on: pigweed (Amaranthus retroflexus); experiment: Test A postemergence, visual injury rating; conditions: 0 is no effect, 100 is complete control
Procedure, shortened: as §1

[10] = tested on: ragweed (common ragweed, Ambrosia elatior); experiment: Test A postemergence, visual injury rating; conditions: 0 is no effect, 100 is complete control
Procedure, shortened: as §1

[11] = tested on: wheat (Triticum aestivum); experiment: Test A postemergence, visual injury rating; conditions: 0 is no effect, 100 is complete control
Procedure, shortened: as §1

[12] = tested on: barnyardgrass (Echinochloa crus-galli); experiment: Test B flooded paddy test, plant response rating; conditions: 250 g ai/ha; Flood; scale of 0 to 100 where 0 is no effect and 100 is complete control; 13 to 15 days
Procedure, shortened: (§2)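 Pots were flooded to 3 cm above the soil surface at treatment, compound applied directly to the paddy water, and that depth held throughout. Plants were kept in a greenhouse for 13 to 15 days, then visually rated against untreated controls.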

[13] = tested on: ducksalad (Heteranthera limosa); experiment: Test B flooded paddy test, plant response rating; conditions: 250 g ai/ha; Flood; scale of 0 to 100 where 0 is no effect and 100 is complete control; 13 to 15 days
Procedure, shortened: as §2

rice (Oryza sativa) = experiment: Test B flooded paddy test, plant response rating; conditions: 250 g ai/ha; Flood; scale of 0 to 100 where 0 is no effect and 100 is complete control; 13 to 15 days
Procedure, shortened: as §2

[14] = tested on: sedge, umbrella (small-flower umbrella sedge, Cyperus difformis); experiment: Test B flooded paddy test, plant response rating; conditions: 250 g ai/ha; Flood; scale of 0 to 100 where 0 is no effect and 100 is complete control; 13 to 15 days
Procedure, shortened: as §2

[15] = tested on: chickweed (common chickweed, Stellaria media); experiment: Test C postemergence, plant response rating; conditions: for Plant response rating, Chickweed: scale 0 to 100; for Chickweed plant response rating: scale 0 to 100 (0 no effect, 100 complete control)
Excerpt: (§3) Seeds of plant species selected from blackgrass (Alopecurus myosuroides), ryegrass, Italian (Italian ryegrass, Lolium multiflorum), wheat (winter wheat, Triticum aestivum), galium (catchweed bedstraw, Galium aparine), corn (Zea mays), crabgrass, large (large crabgrass, Digitaria sanguinalis), foxtail, giant (giant foxtail, Setaria faberii), johnsongrass (Sorghum halepense), lambsquarters (Chenopodium album), morningglory (Ipomoea coccinea), nutsedge, yellow (yellow nutsedge, Cyperus esculentus), pigweed (Amaranthus retroflexus), ragweed (common ragweed, Ambrosia elatior), soybean (Glycine max), barnyardgrass (Echinochloa crus-galli), oilseed rape (Brassica napus), pigweed, palmer (palmer pigweed, Amaranthus palmeri), waterhemp (common waterhemp, Amaranthus rudis), velvetleaf (Abutilon theophrasti), kochia (Kochia scoparia), surinam grass (Brachiaria decumbens), nightshade (eastern black nightshade, Solanum ptycanthum), wild poinsettia (Euphorbia heterophylla), windgrass (Apera spica-venti), and oat, wild (wild oat Avena fatua), were planted into a blend of loam soil and sand or a silt loam soil and treated preemergence with test chemicals formulated in a non-phytotoxic solvent mixture which included a surfactant.
(§4) At the same time, plants selected from these crop and weed species and also chickweed (common chickweed, Stellaria media), buckwheat, wild (wild buckwheat, Polygonum convolvulus), wild mustard (Sinapis arvensis), field poppy (Papaver rhoeas), field violet (Viola arvensis), geranium, cutleaf (cutleaf geranium, Geranium dissectum), Canada thistle (Cirsium arvense), and speedwell (bird's-eye speedwell, Veronica persica), were planted in pots containing Sunshine Redi-Earth® planting medium comprising spaghnum peat moss, vermiculite, starter nutrients and dolomitic limestone and treated with postemergence applications of test chemicals formulated in the same manner. Plants ranged in height from 2 to 18 cm (1- to 4-leaf stage) for postemergence treatments. Treated plants and controls were maintained in a greenhouse for 13 to 15 d, after which time all species were compared to controls and visually evaluated. Plant response ratings, summarized in Table C, are based on a scale of 0 to 100 where 0 is no effect and 100 is complete control. A dash (-) response means no test result.

kochia (Kochia scoparia) [16] = experiment: Test C postemergence, plant response rating; conditions: for Plant response rating, Kochia: scale 0 to 100; for Kochia plant response rating: scale 0 to 100 (0 no effect, 100 complete control)
Excerpt: as §3, §4

[17] = tested on: morningglory (Ipomoea coccinea); experiment: Test C postemergence, plant response rating; conditions: for Plant response rating, Morningglory: scale 0 to 100; for Morningglory plant response rating: scale 0 to 100 (0 no effect, 100 complete control)
Excerpt: as §3, §4

N#CCCOC(=O)c1c(Br)cccc1Oc1ncc(Cl)cn1 [Compound 7]
Kochia plant response rating (kochia (Kochia scoparia) [1]; 125 g ai/ha): 50
Kochia plant response rating (kochia (Kochia scoparia) [1]; 500 g ai/ha): 100
Pigweed plant response rating ([2]; 125 g ai/ha): 100
Pigweed plant response rating ([2]; 500 g ai/ha): 100
Ryegrass, Italian plant response rating (0 to 100 scale) ([3]; 125 g ai/ha): 20
Ryegrass, Italian plant response rating (0 to 100 scale) ([3]; 500 g ai/ha): 70
Barnyardgrass plant response rating (0 to 100 scale) ([4]; 125 g ai/ha): 30
Barnyardgrass plant response rating (0 to 100 scale) ([4]; 500 g ai/ha): 90
Blackgrass plant response rating (0 to 100 scale) ([5]; 125 g ai/ha): 30
Blackgrass plant response rating (0 to 100 scale) ([5]; 500 g ai/ha): 80
Corn plant response rating (0 to 100 scale) (corn (Zea mays); 125 g ai/ha): 10
Corn plant response rating (0 to 100 scale) (corn (Zea mays); 500 g ai/ha): 70
Galium plant response rating (0 to 100 scale) ([6]; 125 g ai/ha): 100
Galium plant response rating (0 to 100 scale) ([6]; 500 g ai/ha): 100
Foxtail, Giant plant response rating (0 to 100 scale) ([7]; 125 g ai/ha): 50
Foxtail, Giant plant response rating (0 to 100 scale) ([7]; 500 g ai/ha): 100
Kochia plant response rating (0 to 100 scale) (kochia (Kochia scoparia) [8]; 125 g ai/ha): 100
Kochia plant response rating (0 to 100 scale) (kochia (Kochia scoparia) [8]; 500 g ai/ha): 100
Pigweed plant response rating (0 to 100 scale) ([9]; 125 g ai/ha): 100
Pigweed plant response rating (0 to 100 scale) ([9]; 500 g ai/ha): 100
Ragweed plant response rating (0 to 100 scale) ([10]; 125 g ai/ha): 40
Ragweed plant response rating (0 to 100 scale) ([10]; 500 g ai/ha): 90
Wheat plant response rating (0 to 100 scale) ([11]; 125 g ai/ha): 0
Wheat plant response rating (0 to 100 scale) ([11]; 500 g ai/ha): 20
Plant response rating, Barnyardgrass [12]: 0
Plant response rating, Ducksalad [13]: 0
Plant response rating, Rice (rice (Oryza sativa)): 0
Plant response rating, Sedge, Umbrella [14]: 0
Plant response rating, Chickweed ([15]; 16 g ai/ha): 5
Plant response rating, Chickweed ([15]; 31 g ai/ha): 5
Chickweed plant response rating ([15]; 62 g ai/ha): 30
Chickweed plant response rating ([15]; 125 g ai/ha): 50
Plant response rating, Kochia (kochia (Kochia scoparia) [16]; 16 g ai/ha): 0
Plant response rating, Kochia (kochia (Kochia scoparia) [16]; 31 g ai/ha): 30
Kochia plant response rating (kochia (Kochia scoparia) [16]; 62 g ai/ha): 25
Kochia plant response rating (kochia (Kochia scoparia) [16]; 125 g ai/ha): 20
Plant response rating, Morningglory ([17]; 16 g ai/ha): 5
Plant response rating, Morningglory ([17]; 31 g ai/ha): 25
Morningglory plant response rating ([17]; 62 g ai/ha): 40
Morningglory plant response rating ([17]; 125 g ai/ha): 55
